Measurements reported in the supplement of paper PMC11061612.

Experiments:
Assay in all cases: Bliss excess, mean over the matrix (fraction); higher = more synergy
[1] = test system: CAL-78 (Chondrosarcoma)
How it was run: (§1)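 Cell lines in DMEM/F12 or RPMI with 10% FBS were plated in 1536-well plates, held 24 hours at 37°C, 5% CO2, then given two-drug dose matrices for 72 hours (DMSO typically 0.2%). Viability was read by CellTiter-Glo 2.0 luminescence and scaled as inhibition from 0 (vehicle wells) to 1 (blank wells). Combination Emax is the second-highest inhibition in the matrix; Bliss excess is observed combination effect minus expected EA + EB − EA·EB, EA and EB being single-agent effects.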

[2] = test system: COR-L23 (Non-Small Cell Lung Carcinoma)
How it was run: as §1

[3] = test system: DMS-273 (Small Cell Lung Carcinoma)
How it was run: as §1

[4] = test system: DOV13 (Ovarian Carcinoma)
How it was run: as §1

[5] = test system: DSH1 (Bladder Carcinoma)
How it was run: as §1

[6] = test system: ES7 (Ewing's Sarcoma)
How it was run: as §1

[7] = test system: HCC2157 (Breast Carcinoma)
How it was run: as §1

[8] = test system: IGR-1 (Melanoma)
How it was run: as §1

[9] = test system: JiyoyeP-2003 (Burkitt's Lymphoma)
How it was run: as §1

[10] = test system: LS-513 (Colorectal Carcinoma)
How it was run: as §1

[11] = test system: MDA-MB-157 (Breast Carcinoma)
How it was run: as §1

[12] = test system: MDA-MB-231 (Breast Carcinoma)
How it was run: as §1

[13] = test system: MFH-ino (Other Solid Carcinomas)
How it was run: as §1

[14] = test system: NCI-H1781 (Lung Adenocarcinoma)
How it was run: as §1

[15] = test system: NCI-H1793 (Lung Adenocarcinoma)
How it was run: as §1

[16] = test system: NCI-H2369 (Mesothelioma)
How it was run: as §1

[17] = test system: SK-N-FI (Neuroblastoma)
How it was run: as §1

[18] = test system: SW1088 (Low Grade Glioma)
How it was run: as §1

[19] = test system: SW780 (Bladder Carcinoma)
How it was run: as §1

[20] = test system: TE-5 (Esophageal Squamous Cell Carcinoma)
How it was run: as §1

| SMILES | Bliss excess [1] | Bliss excess [2] | Bliss excess [3] | Bliss excess [4] | Bliss excess [5] | Bliss excess [6] | Bliss excess [7] | Bliss excess [8] | Bliss excess [9] | Bliss excess [10] | Bliss excess [11] | Bliss excess [12] | Bliss excess [13] | Bliss excess [14] | Bliss excess [15] | Bliss excess [16] | Bliss excess [17] | Bliss excess [18] | Bliss excess [19] | Bliss excess [20] |
| --- | --- | --- | --- | --- | --- | --- | --- | --- | --- | --- | --- | --- | --- | --- | --- | --- | --- | --- | --- | --- |
| NC1(C(=O)N[C@@H](CCO)c2ccc(Cl)cc2)CCN(c2ncnc3[nH]ccc23)CC1 [Capivasertib] + C[C@@H]1COCCN1C2=NC(=NC(=C2)C3(CC3)[S@](=N)(=O)C)C4=C5C=CNC5=NC=C4 [AZD6738] (first compound max 10 µM, 7x7, partner max 10 µM) | -0.0695 | -0.0358 | -0.0377 | -0.062 | -0.064 | -0.055 | -0.0175 | -0.0227 | -0.0698 | -0.0697 | -0.0365 | -0.0598 | -0.086 | -0.032 | 0.0097 | -0.0127 | -0.0529 | -0.0619 | -0.0216 | -0.0345 |
| COc1cc2ncnc(Nc3ccc(F)c(Cl)c3)c2cc1OCCCN1CCOCC1 [Gefitinib] + CC(C)n1c(=O)n(C)c2cnc3cc(F)c(-c4ccc(OCCCN5CCCCC5)nc4)cc3c21 [AZD1390] (first compound max 10 µM, 7x7, partner max 0.3 µM) | -0.0625 | -0.069 | -0.0068 | -0.1 | -0.0351 | -0.0916 | -0.0136 | -0.006 | -0.0386 | -0.0362 | -0.0453 | -0.0659 | -0.0761 | -0.0801 | -0.0406 | -0.0614 | -0.0391 | -0.0688 | -0.0642 | -0.045 |
| CC(=O)Nc1cccc(-n2c(=O)n(C3CC3)c(=O)c3c(Nc4ccc(I)cc4F)n(C)c(=O)c(C)c32)c1 [Trametinib] + Cc1nc(-c2cn3c(n2)-c2ccc(-c4cnn(C(C)(C)C(N)=O)c4)cc2OCC3)n(C(C)C)n1 [Taselisib] (first compound max 1 µM, 7x7, partner max 10 µM) | 0.0728 | 0.162 | 0.0427 | 0.136 | 0.0704 | 0.0164 | 0.0554 | 0.15 | 0.108 | 0.0113 | 0.0963 | 0.142 | 0.148 | -0.053 | 0.0519 | 0.046 | 0.033 | 0.0579 | 0.129 | 0.101 |
| CN(CCO)CC[C@H](CSc1ccccc1)Nc1ccc(S(=O)(=O)NC(=O)c2ccc(N3CCC([C@@H](O)c4ccccc4-c4ccc(Cl)cc4)CC3)cc2)cc1S(=O)(=O)C(F)(F)F [AZD4320] + CCN(CCO)CCCOc1ccc2c(Nc3cc(CC(=O)Nc4cccc(F)c4)[nH]n3)ncnc2c1 [AZD2811] (first compound max 1 µM, 7x7, partner max 1 µM) | 0.117 | -0.0343 | -0.0732 | 0.0816 | 0.0821 | 0.0493 | 0.0907 | 0.148 | 0.057 | -0.0584 | 0.0101 | 0.0602 | -0.0406 | -0.0788 | -0.0421 | 0.0005 | -0.022 | -0.0659 | 0.028 | 0.0379 |
| COc1cccc(OCCCN)c1-c1cc(Nc2cnc(C#N)cn2)n[nH]1 [Prexasertib] + Cc1cc2ncnn2cc1Nc1ncc2c(n1)n(C1CCOCC1)c(=O)n2C [AZD7648] (first compound max 1 µM, 7x7, partner max 10 µM) | -0.0473 | 0.0184 | -0.0121 | 0.0069 | -0.0289 | -0.0483 | -0.0315 | 0.0116 | 0.017 | -0.0509 | -0.0594 | 0.0128 | -0.0301 | 0.0024 | 0.0257 | -0.0252 | -0.0084 | -0.0975 | 0.001 | 0.0129 |
| CN(CCO)CC[C@H](CSc1ccccc1)Nc1ccc(S(=O)(=O)NC(=O)c2ccc(N3CCC([C@@H](O)c4ccccc4-c4ccc(Cl)cc4)CC3)cc2)cc1S(=O)(=O)C(F)(F)F [AZD4320] + CN(C)CCCOc1ccc(-c2ccc3ncc4c(c3c2)n(C2CCOCC2)c(=O)n4C)cn1 [AZD0156] (first compound max 1 µM, 7x7, partner max 1 µM) | -0.004 | -0.0231 | -0.0199 | -0.0021 | 0.0303 | 0.0177 | 0.009 | -0.0149 | -0.0211 | -0.0391 | -0.0046 | 0.0319 | -0.059 | -0.0694 | -0.027 | -0.036 | -0.0252 | -0.033 | -0.0392 | -0.0135 |
| COc1cccc(OCCCN)c1-c1cc(Nc2cnc(C#N)cn2)n[nH]1 [Prexasertib] + CN(C)CCCOc1ccc(-c2ccc3ncc4c(c3c2)n(C2CCOCC2)c(=O)n4C)cn1 [AZD0156] (first compound max 1 µM, 7x7, partner max 1 µM) | -0.0165 | 0.0229 | -0.0183 | -0.0227 | -0.0243 | -0.0329 | -0.0366 | 0.0399 | -0.0003 | 0.0156 | -0.0226 | -0.0306 | 0.0142 | -0.0803 | -0.0227 | -0.0016 | -0.0168 | -0.0241 | -0.0232 | 0.0016 |
| CC1(C)CCC(CN2CCN(c3ccc(C(=O)NS(=O)(=O)c4ccc(NCC5CCOCC5)c([N+](=O)[O-])c4)c(Oc4cnc5[nH]ccc5c4)c3)CC2)=C(c2ccc(Cl)cc2)C1 [Venetoclax] + C1CN(CCC1(C(=O)N[C@@H](CCO)C2=CC=C(C=C2)Cl)N)C3=NC=NC4=C3C=CN4 [Capivasertib] (first compound max 1 µM, 7x7, partner max 3 µM) | -0.0387 | -0.0525 | 0.0443 | -0.0028 | -0.0642 | -0.0178 | -0.0055 | -0.0602 | -0.0144 | -0.0649 | -0.0187 | -0.0443 | -0.0294 | -0.0811 | -0.041 | -0.0422 | 0.0002 | -0.0578 | -0.0335 | -0.0197 |
| CC(=O)c1c(C)c2cnc(Nc3ccc(N4CCNCC4)cn3)nc2n(C2CCCC2)c1=O [Palbociclib] + Cc1c2c(nn1C)CSCc1cc(n(C)n1)CSc1cc(c3ccccc3c1)OCCCc1c(C(=O)O)n(C)c3c-2c(Cl)ccc13 [AZD5991] (first compound max 10 µM, 7x7, partner max 1 µM) | -0.0395 | -0.0472 | -0.0565 | -0.0567 | -0.0748 | -0.005 | -0.0106 | 0.0047 | -0.0436 | -0.0235 | -0.0408 | -0.0424 | -0.042 | -0.0608 | -0.0299 | -0.0593 | -0.0412 | 0.0212 | -0.0441 | -0.0284 |
| Cc1c2c(nn1C)CSCc1cc(n(C)n1)CSc1cc(c3ccccc3c1)OCCCc1c(C(=O)O)n(C)c3c-2c(Cl)ccc13 [AZD5991] + CCN(CCO)CCCOc1ccc2c(Nc3cc(CC(=O)Nc4cccc(F)c4)[nH]n3)ncnc2c1 [AZD2811] (first compound max 1 µM, 7x7, partner max 1 µM) | -0.0228 | 0.0013 | -0.0949 | 0.0169 | 0.0492 | 0.0267 | -0.0241 | 0.0316 | 0.0917 | 0.0137 | 0.078 | 0.0604 | 0.0053 | -0.0155 | -0.0255 | -0.0156 | 0.0054 | -0.0485 | 0.0188 | -0.0313 |
| Cc1cc2ncnn2cc1Nc1ncc2c(n1)n(C1CCOCC1)c(=O)n2C [AZD7648] + C[C@@H]1COCCN1C2=NC(=NC(=C2)C3(CC3)[S@](=N)(=O)C)C4=C5C=CNC5=NC=C4 [AZD6738] (first compound max 10 µM, 7x7, partner max 10 µM) | 0.0344 | -0.0121 | 0.0094 | -0.0039 | -0.0234 | 0.074 | -0.0528 | 0.0074 | 0.0127 | 0.0641 | -0.0029 | 0.037 | -0.0002 | 0.103 | -0.0059 | 0.008 | -0.005 | 0.0289 | 0.0476 | -0.0093 |
| CCN(CCO)CCCOc1ccc2c(Nc3cc(CC(=O)Nc4cccc(F)c4)[nH]n3)ncnc2c1 [AZD2811] + O=C(c1cc(Cc2n[nH]c(=O)c3ccccc23)ccc1F)N1CCN(C(=O)C2CC2)CC1 [Olaparib] (first compound max 1 µM, 7x7, partner max 10 µM) | 0.0006 | -0.016 | -0.0044 | -0.0824 | 0.0082 | -0.0184 | -0.0105 | -0.0059 | 0.0809 | -0.0158 | 0.032 | -0.0175 | -0.0318 | -0.0293 | -0.0264 | 0.0055 | -0.0001 | -0.0539 | 0.02 | -0.0181 |
| COc1cccc(OCCCN)c1-c1cc(Nc2cnc(C#N)cn2)n[nH]1 [Prexasertib] + C[C@@H]1COCCN1C2=NC(=NC(=C2)C3(CC3)[S@](=N)(=O)C)C4=C5C=CNC5=NC=C4 [AZD6738] (first compound max 1 µM, 7x7, partner max 10 µM) | -0.0331 | -0.0311 | -0.0374 | 0.0179 | -0.0083 | -0.0416 | -0.0145 | -0.0091 | -0.0065 | -0.0183 | -0.0256 | 0.0988 | 0.0457 | 0.006 | -0.0106 | -0.0274 | 0.0336 | -0.0192 | 0.0009 | 0.0203 |
| NC1(C(=O)N[C@@H](CCO)c2ccc(Cl)cc2)CCN(c2ncnc3[nH]ccc23)CC1 [Capivasertib] + Cn1cnc2c(F)c(Nc3ccc(Br)cc3Cl)c(C(=O)NOCCO)cc21 [Selumetinib] (first compound max 10 µM, 7x7, partner max 10 µM) | -0.0369 | 0.0071 | -0.003 | -0.0314 | 0.121 | 0.0372 | 0.017 | 0.103 | 0.101 | 0.0031 | -0.014 | -0.007 | -0.0205 | 0.105 | -0.0292 | -0.0292 | -0.0313 | 0.0342 | 0.0066 | 0.0457 |
